Laboratory results reported in patent US6989451B2, “Heterocyclic compounds and uses thereof” (Valeant Research & Development, priority 2002, dated 2006).

Key:
GST-hMEK1 and mERK2 = target: T1, GST-hMEK1 and mERK2 (Homo sapiens, UniProt Q02750); assay type: biochemical; conditions: minimum concentration causing 50% inhibition in vitro assays; MEK kinase inhibition
T1 construct: purified GST-hMEK1 and mERK2 enzymes; fused on or other part: GST tag on hMEK1
Experimental: In order to identify ideal inhibitory compounds in a high throughput-screening (HTS) format a 96-well radiolabel incorporation format assay utilizing purified GST-hMEK1 and mERK2 enzymes was developed. Compounds were diluted from dimethylsulfoxide (DMSO) stocks into 1× Simplified Assay Buffer (SAB) (20 mM HEPES and 10 mM MgCl2). A typical 25 microliter assay contained 0.002 nanomoles MEK^CA, 0.02 nanomoles ERK, 0.25 nanomoles MBP, 0.25 nanomoles unlabeled ATP, and 0.1 μCi [γ^33P] ATP. The screening assay essentially comprised four additions. Five μ1 of diluted compound were dispensed to 96-well assay plates. Ten μl of 2.5× enzyme cocktail (MEK^CA and ERK only) were then added to each well followed by a pre-incubation for 15 minutes at 37° C. […] Finally, 200 μl of 10% trichloroacetic acid (TCA) were added and incubated for 30 minutes to halt the reaction and precipitate radio labeled protein products. A filter plate was placed in the Filtermate Harvester, wetted twice with water, and rinsed twice with 1% pyrophosphate to block nonspecific binding to the glass filter. An assay plate was then scanned and aspirated or harvested onto the filter plate. The filter plate was then washed 12 times with water. Water was displaced by two washes with absolute ethanol and the plate was removed and allowed to air dry for 30 minutes at room temperature. A back seal was applied manually and 40 μl of scintillation cocktail were dispensed per well. A top seal was applied and the plate was counted in the TopCount for two seconds per well.

[1] = test system: MEK-ERK dependent luciferase expression (constitutively activated mutant MEK) in 293T cells; test: Cell-based MEK-ERK dependent luciferase reporter assay in 293T cells; conditions: Homo sapiens, HEK-293T, minimum concentration causing 50% inhibition in cell-based assays, 24 hours incubation
Experimental: Activities of compounds were determined using a cell-based assay system. 293T cells were engineered to express a luciferase reporter protein in response to activation of ERK. ERK was activated by the doxycycline inducible expression of a constitutively activated mutant MEK. The activated MEK mutant had serines 218 and 222 replaced with aspartic acids. Therefore, addition of doxycycline to the media of cells induced an increase in MEK-ERK dependent luciferase expression.
Cells were plated at 5000 cells per well of a 384 well plate in 20 ul of media containing 10 ng/ml doxycycline. Compounds were resuspended in DMSO at a concentration of 20 mM. These compound stocks were diluted at least 200 fold so the concentration of DMSO was never above 0.5%. Cells were incubated with compounds for 24 hours at which time 25 ul of Steady-Glo (Promega Corp.) was added. The plates were then assayed for luminescence. Percent inhibition was calculated by dividing the luminescence of compound treated cells by control cells.

T1 sequence (P63085 2-358): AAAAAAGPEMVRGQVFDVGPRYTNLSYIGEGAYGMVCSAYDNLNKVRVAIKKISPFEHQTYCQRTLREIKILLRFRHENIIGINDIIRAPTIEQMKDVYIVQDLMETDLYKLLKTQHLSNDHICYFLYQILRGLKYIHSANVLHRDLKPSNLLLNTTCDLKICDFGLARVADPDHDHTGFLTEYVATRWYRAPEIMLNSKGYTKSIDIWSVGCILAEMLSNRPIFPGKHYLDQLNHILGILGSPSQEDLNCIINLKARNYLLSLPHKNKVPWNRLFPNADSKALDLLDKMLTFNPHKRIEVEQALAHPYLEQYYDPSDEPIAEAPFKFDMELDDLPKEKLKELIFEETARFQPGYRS
T1 sequence (Q02750 whole entry, the tested form may be a part): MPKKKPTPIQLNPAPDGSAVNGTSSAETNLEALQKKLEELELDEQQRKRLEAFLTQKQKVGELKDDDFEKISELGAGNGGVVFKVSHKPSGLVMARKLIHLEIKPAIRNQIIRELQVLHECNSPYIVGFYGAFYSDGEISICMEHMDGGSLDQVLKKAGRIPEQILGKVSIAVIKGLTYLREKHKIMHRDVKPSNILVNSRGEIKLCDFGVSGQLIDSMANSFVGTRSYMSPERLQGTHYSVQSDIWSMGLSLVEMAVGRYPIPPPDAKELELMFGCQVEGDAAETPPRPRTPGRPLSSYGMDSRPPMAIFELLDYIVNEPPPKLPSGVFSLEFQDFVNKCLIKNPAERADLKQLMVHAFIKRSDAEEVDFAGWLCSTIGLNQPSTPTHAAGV

| SMILES | IC50 (GST-hMEK1 and mERK2) | EC50 [1] |
| --- | --- | --- |
| N=C(N)c1c(O)nsc1Nc1ccc(Oc2ccccc2)cc1 [Compound 36] | < 10 µM | – |
| COc1ccc(Nc2snc(O)c2C#N)cc1 [Compound 6] | – | > 100 µM |
| CN(C)c1ccc(Nc2snc(O)c2C#N)c2ccccc12 [Compound 18] | < 10 µM | < 10 µM |
| Cc1cccc(Nc2s[nH]c(=O)c2C#N)c1 [Compound 4] | 10 to 100 µM | 10 to 100 µM |
| COC(=O)c1ccccc1Nc1snc(O)c1C#N [Compound 27] | < 10 µM | – |
| N#Cc1c(O)nsc1NCCCN1CCOCC1 [Compound 40] | < 10 µM | – |
| N#Cc1c(O)nsc1NCCc1ccc(O)cc1 [Compound 35] | < 10 µM | – |
| N#Cc1c(OC2CCCCC2)nsc1Nc1ccccc1 [Compound 38] | < 10 µM | – |
| N#Cc1c(O)nsc1Nc1cccc2ccccc12 [Compound 13] | < 10 µM | < 10 µM |
| N#Cc1c(Nc2ccc(Br)cc2)s[nH]c1=O [Compound 24] | < 10 µM | – |
| N#Cc1c(O)nsc1Nc1ccccc1Cl [Compound 11] | 10 to 100 µM | > 100 µM |
| N#Cc1c(O)nsc1Nc1ccccc1C(F)(F)F [Compound 19] | 10 to 100 µM | – |
| Cc1ccccc1Nc1snc(O)c1C#N [Compound 5] | 10 to 100 µM | 10 to 100 µM |
| N#Cc1c(O)nsc1Nc1ccc(N)cc1 [Compound 21] | < 10 µM | – |
| CC(C)c1ccc(Nc2snc(O)c2C#N)cc1 [Compound 15] | < 10 µM | < 10 µM |
| COc1cccc(Nc2snc(O)c2C#N)c1 [Compound 8] | – | > 100 µM |
| N#Cc1c(O)nsc1NCC1CCCO1 (stereo not shown) [Compound 34] | < 10 µM | – |
| N#Cc1c(Br)nsc1Nc1ccccc1 [Compound 2] | 10 to 100 µM | < 10 µM |
| N#Cc1c(O)nsc1Nc1cccc(Cl)c1 [Compound 10] | 10 to 100 µM | > 100 µM |

| SMILES | IC50 (GST-hMEK1 and mERK2) | EC50 [1] |
| --- | --- | --- |
| N#Cc1c(O)nsc1Nc1ccc(Cl)cc1 [Compound 9] | 10 to 100 µM | > 100 µM |
| N#Cc1c(O)nsc1Nc1ccc([N+](=O)[O-])cc1 [Compound 12] | < 10 µM | > 100 µM |
| N#Cc1c(O)nsc1N1CCCCC1 [Compound 33] | < 10 µM | – |
| N#Cc1c(O)nsc1Nc1ccccc1F [Compound 26] | < 10 µM | – |
| N#Cc1c(O)nsc1Nc1cccnc1 [Compound 29] | < 10 µM | – |
| CN(C)c1ccc2ccccc2c1Nc1snc(O)c1C#N [Compound 17] | < 10 µM | < 10 µM |
| COc1ccccc1Nc1snc(O)c1C#N [Compound 7] | – | > 100 µM |
| N#Cc1c(O)nsc1NC1CCc2ccccc21 (stereo not shown) [Compound 31] | < 10 µM | – |
| CC(C)c1cccc(C(C)C)c1Nc1snc(O)c1C#N [Compound 16] | 10 to 100 µM | 10 to 100 µM |
| Cc1ccc(Nc2snc(O)c2C#N)cc1 [Compound 3] | 10 to 100 µM | < 10 µM |
| COc1cc(-c2ccccc2)ccc1Nc1snc(O)c1C#N [Compound 14] | < 10 µM | > 100 µM |
| Cc1ccc(Nc2snc(N)c2C#N)cc1 [Compound 20] | < 10 µM | – |
| NC(=O)c1c(O)nsc1Nc1ccc(Oc2ccccc2)cc1 [Compound 37] | < 10 µM | – |
| COC(=O)c1ccc(Nc2snc(O)c2C#N)cc1 [Compound 25] | < 10 µM | – |
| CC(=O)c1ccc(Nc2snc(O)c2C#N)cc1 [Compound 22] | < 10 µM | – |
| CC(C)Nc1snc(O)c1C#N [Compound 39] | < 10 µM | – |
| CCCCNc1snc(O)c1C#N [Compound 32] | < 10 µM | – |
| N#Cc1c(O)nsc1Nc1ccccc1 [Compound 1] | < 10 µM | 10 to 100 µM |
